Measured values as given in patent US6028077A, “Crambescidin compounds” (priority 1998, dated 2000).
Where two headings read alike, the source gives them in different places.

Columns and labels:
[1] = test system: L1210 murine leukemia cells; assay: Cytotoxicity (parallel assay) against L1210 murine leukemia cells; assay type: cell-based; conditions: for activity relative to crambescidin 816 (1) / cytotoxic activity compared with other compounds: L1210 cells; for inhibition at 0.1 µg/mL / inhibition at 0.25 µg/mL / inhibition at 0.5 µg/mL / inhibition at 1 µg/mL: Mus musculus; for inhibition at 0.1 µg/mL: L1210, 0.1 μg/mL; for inhibition at 0.25 µg/mL: L1210, 0.25 μg/mL; for inhibition at 0.5 µg/mL: L1210, 0.5 μg/mL; for inhibition at 1 µg/mL: L1210, 1.0 μg/mL
From the text: However, crambescidins 674 (9) and 687 (10) without a spermidine derivative unit are less than 5 times as active than 1.
Cytotoxicities against L1210 Cells for Compounds 1, 6-12,

[2] = virus not named; cited from earlier work
L1210 cells = conditions: cited from earlier work
Ca^2+ channel = conditions: cited from earlier work
[3] = test system: Herpes simple-x, Type I virus (HSV-I); conditions: cited from earlier work
HSV = conditions: cited from earlier work
P388 cells = conditions: cited from earlier work
KB cells = conditions: cited from earlier work
Candida albicans = conditions: cited from earlier work
Rhodotorula glutinis = assay: Antimicrobial assay against Rhodotorula glutinis; assay type: cell-based
[4] = times as active than 1, without a spermidine derivative unit

SMILES	inhibition at 0.1 µg/mL [1] [%]	inhibition at 0.25 µg/mL [1] [%]	inhibition at 0.5 µg/mL [1] [%]	inhibition at 1 µg/mL [1] [%]	other results
CCC1C=CCCC2(CC3CCC4(O)C(C(=O)OCCCCCCCCCCCCCCCC(=O)O)C5(CCCC(C)O5)NC(=N2)N34)O1 (centres unmarked) [Compound 9, Crambescidin 673]	0	0	0	100	activity relative to crambescidin 816 (1) [1, 4]: less than 5 times
CCC1C=CCCC2(CC3CCC4C(C(=O)OCCCCCCCCCCCCCCCC(=O)N(CCCN)CC(O)CCN)C5(CCCC(C)O5)NC(=N2)N34)O1 (centres unmarked) [Compound 5, 13, 14, 15-Isocrambescidin 800]					antiviral activity [2]: no observed antiviral activity; growth inhibition / cytotoxicity, L1210 cells (L1210 cells): substantially less cytotoxic
CCC1C=CCCC2(CC3CCC4C(C(=O)OCCCCCCCCCCCCCCCC(=O)O)C5(CCCC(C)O5)NC(=N2)N34)O1 (centres unmarked) [Compound 11, Crambescidin 657]				100	Inhibition (%) ([1]; 0.1 μg/mL): 93%; cytotoxic activity compared with other compounds ([1]; listed as crambescidin 657 (11)): most cytotoxic compound in the test
CCC1C=CCCC2(CC3CCC4C(C(=O)OCCCCCCCCCCCCCCCC(=O)O)C5(CCCC(C)O5)NC(=N2)N34)O1 (centres unmarked) [Compound 12, 13,14,15-Isocrambescidin 657]					Inhibition (%) ([1]; 0.1 μg/mL): 0%; Inhibition (%) ([1]; 0.25 μg/mL): 0%; Inhibition (%) ([1]; 0.5 μg/mL): 0%; Inhibition (%) ([1]; 1.0 μg/mL): 100%; inhibition at 5 μg/mL ([1]; 5 μg/mL): no inhibition; cytotoxic activity compared with other compounds ([1]; listed as 13, 14, 15-Isocrambescidin 657 (12)): substantially less active
CCC1C=CCCC2(CC3CCC4(O)C(C(=O)OCCCCCCCCCCCCCCCC(=O)N(CCCN)CC(O)CCN)C5(CCCC(C)O5)NC(=N2)N34)O1 (centres unmarked) [Compound 1, crambescidin 816, reference compound]	0	70	97	100	Ca^2+ channel blocker (Ca^2+ channel): potent calcium channel blocker; Ca^2+ channel blocker (Ca^2+ channel; listed as crambescidin 816 (1)): strong Ca^2+ channel blocker; antiviral activity against HSV-I [3]: exhibited antiviral activity
CCC1C=CCCC2(CC3CCC4C(C(=O)OCCCCCCCCCCCCCCCC(=O)N(CCCN)CC(Cl)CCN)C5(CCCC(C)O5)NC(=N2)N34)O1 (centres unmarked) [Compound 8, Crambescidin 818]	90	95	95	100	activity relative to crambescidin 816 (1) ([1]; times more active than 1): about 5 times
CCC1C=CCCC2(CC3CCC4C(C(=O)OCCCCCCCCCCCCCCCC(=O)OC)C5(CCCC(C)O5)NC(=N2)N34)O1 (centres unmarked) [Methyl 11]	0	0	0	0	
CCC1C=CCCC2(CC3CCC4(O)C(C(=O)OCCCCCCCCCCCCCCCC(=O)N(CCCN)CC(Cl)CCN)C5(CCCC(C)O5)NC(=N2)N34)O1 (centres unmarked) [Compound 7, Crambescidin 834]	90	95	95	100	activity relative to crambescidin 816 (1) ([1]; times more active than 1): about 5 times
CCC1C=CCCC2(CC3CCC4(O)C(C(=O)OCCCCCCCCCCCCCCCC(=O)OC)C5(CCCC(C)O5)NC(=N2)N34)O1 (centres unmarked) [Compound 10, Crambescidin 687]	0	0	0	100	activity relative to crambescidin 816 (1) [1, 4]: less than 5 times
CCC1C=CCCC2(CC3CCC4C(C(=O)OCCCCCCCCCCCCCCCC(=O)N(CCCN)CCCCN)C5(CCCC(C)O5)NC(=N2)N34)O1 (centres unmarked) [Compound 6, ptilomycalin A]	20	60	99	100	growth inhibition / cytotoxicity, L1210 cells (L1210 cells): shown cytotoxicity; antiviral activity (HSV) (HSV): antiviral activity (HSV); cytotoxicity, P388 cells (P388 cells): shown cytotoxicity; cytotoxicity, KB cells (KB cells): shown cytotoxicity; antifungal activity against Candida albicans (Candida albicans): antifungal activity; antimicrobial activity at 2 μg/well (Rhodotorula glutinis): active; cytotoxic activity compared with other compounds [1]: slightly more active than 1
